Where a SMILES comes first, the peptide text is derived from it. [ ]: non-standard residue; d: D form. pT = C[C@@H](OP(=O)(O)O)[C@H](N)C(=O)O; pS = N[C@@H](COP(=O)(O)O)C(=O)O
Experiments:
[1] = molecular target: T1, 14-3-3η (Homo sapiens, UniProt Q04917); assay: direct binding FP assay, 14-3-3η; conditions: for Kd: FITC-labeled peptide, FP buffer pH 7.4, 60 min room temperature, mean ± S.D., n = 3, values for 14-16 are estimated (Fig. S4), read-out: KD toward 14-3-3η (FP assay)
T1 construct: N-terminally His6-tagged 14-3-3 full-length proteins were expressed with heterologous bacterial expression; made in house
T1 sequence (Q04917 1-246): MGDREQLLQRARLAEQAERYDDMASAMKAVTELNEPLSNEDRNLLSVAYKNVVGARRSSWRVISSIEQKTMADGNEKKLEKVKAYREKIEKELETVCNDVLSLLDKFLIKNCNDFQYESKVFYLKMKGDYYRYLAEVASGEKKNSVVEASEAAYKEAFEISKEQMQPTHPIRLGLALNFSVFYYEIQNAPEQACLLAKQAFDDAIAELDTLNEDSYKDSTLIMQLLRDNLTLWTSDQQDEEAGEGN
Protocol: (§1) For the FP assay, the 14-3-3 proteins were diluted to a protein-specific start concentration in FP buffer (10 mM HEPES, pH 7.4, 150 mM NaCl, 2 mM DTT, 0.01% Tween 20). DMSO stocks of peptides were diluted in FP buffer to a concentration of 30 nM. For the assay, 10 μl of FP buffer were pipetted in 20 wells of a 384-well Corning black round bottom plate. A dilution series with 10 μl of protein solution was performed, and 5 μl of peptide solution was added to each well for a final volume of 15 μl. The plate was incubated for 60 min at room temperature. Measurement was performed at 25 °C in a Tecan Spark20M plate reader (λex = 470 nm, λem = 525 nm). Data analysis was performed with GraphPad Prism (version 5.03), and KD values were determined via a nonlinear regression fit of dose-response curves with variable slope (four parameters).

[2] = molecular target: T1, 14-3-3η; assay: isothermal titration calorimetry (ITC) with 14-3-3η; assay type: binding; conditions: for binding stoichiometry N (ITC, 14-3-3η): T = 298 K, peptide per 14-3-3 protomer, mean ± S.D., n = 3
Protocol: The ITC experiments were performed on an automated MicroCal iTC200 (Malvern Panalytical). To prepare 14-3-3 proteins for ITC measurements, a buffer exchange to ITC buffer (50 mM HEPES, pH 7.4, 250 mM NaCl, 20 mM MgCl2) was performed on a Superdex 75 10/300 GL column (ÄKTA Pure FPLC system, GE Healthcare). For peptides 1, 7, and 17, a 500 μM solution of protein was titrated to a 50 μM solution of peptide in 18 steps (2-μl volume in 4 s, 180-s spacing) at 25 °C. For peptide 11, a 250 μM solution of protein was titrated to a 12.5 μM solution of peptide with the settings mentioned before. The reference power was set to […], and the stirring speed was set to 750 rpm. Analysis was performed using MicroCal ITC-ORIGIN analysis software.

[3] = molecular target: T2, 14-3-3σ (Homo sapiens, UniProt P31947); assay: direct binding fluorescence polarization (FP) assay, 14-3-3σ; conditions: FITC-labeled peptide; Fig. 2A
T2 construct: N-terminally His6-tagged 14-3-3 full-length proteins were expressed with heterologous bacterial expression; made in house
T2 sequence (P31947 1-248): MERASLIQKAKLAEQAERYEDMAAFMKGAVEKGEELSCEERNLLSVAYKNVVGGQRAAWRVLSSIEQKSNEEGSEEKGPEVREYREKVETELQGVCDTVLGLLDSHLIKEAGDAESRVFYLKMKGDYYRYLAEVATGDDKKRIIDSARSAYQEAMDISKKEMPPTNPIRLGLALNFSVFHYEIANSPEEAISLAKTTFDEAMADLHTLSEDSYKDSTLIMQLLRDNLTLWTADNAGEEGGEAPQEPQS
Protocol: as §1

Molecule	binding stoichiometry N (ITC, 14-3-3η) [2]	Kd [1]	further results
CC(=O)N[C@@H](CCC(=O)O)C(=O)N[C@@H](CCCCN)C(=O)N[C@@H](CC(N)=O)C(=O)N[C@@H](CCCCN)C(=O)N[C@@H](CC(N)=O)C(=O)N[C@@H](C)C(=O)N[C@@H](CC(N)=O)C(=O)N[C@@H](COP(=O)(O)O)C(=O)N[C@@H](CO)C(=O)N1CCC[C@H]1C(=O)N[C@H](C(=O)N[C@@H](C)C(=O)N[C@@H](CO)C(=O)N[C@H](C(=O)N[C@H](C(=O)N1CCC[C@H]1C(=O)N[C@@H](CO)C(=O)N[C@@H](C)C(=O)N[C@@H](CO)C(=O)N[C@@H](C)C(=O)N[C@H](C(=O)N[C@H](C(=O)N[C@@H](CC(N)=O)C(=O)N1CCC[C@H]1C(=O)N[C@@H](C)C(=O)N[C@@H](CO)C(=O)N[C@@H](C)C(=O)N[C@H](C(=O)N[C@H](C(=O)N[C@@H](CC(C)C)C(=O)N[C@@H](CC(=O)O)C(=O)N[C@@H](CCC(N)=O)C(=O)N[C@@H](CO)C(=O)N[C@@H](CCCCN)C(=O)N[C@@H](C)C(=O)N[C@@H](Cc1c[nH]c2ccccc12)C(=O)N[C@@H](CC(N)=O)C(=O)N[C@@H](CCCNC(=N)N)C(=O)O)[C@@H](C)O)[C@@H](C)OP(=O)(O)O)[C@@H](C)O)[C@@H](C)O)[C@@H](C)O)[C@@H](C)O)C(C)C [compound 11] (Ac-EKNKNAN[pS]SPVASTTPSASATTNPASA[pT]TLDQSKAWNR-OH)	0.58 ± 0.01	–	increase in overall affinity of 7 versus 11 (14-3-3η, FP) ([1]; pThr^63 combined with site 1, Fig. 4A and Fig. S3): ~500 fold
17: APN 36–73 pThr^63 peptide [compound 17]	–	–	ITC result with 14-3-3η (in words) ([2]; 500 μM protein titrated to 50 μM peptide, 25 °C, Fig. S8): no heat change could be observed
CC(=O)N[C@@H](CCC(=O)O)C(=O)N[C@@H](CCCCN)C(=O)N[C@@H](CC(N)=O)C(=O)N[C@@H](CCCCN)C(=O)N[C@@H](CC(N)=O)C(=O)N[C@@H](C)C(=O)N[C@@H](CC(N)=O)C(=O)N[C@@H](COP(=O)(O)O)C(=O)N[C@@H](CO)C(=O)N1CCC[C@H]1C(=O)N[C@H](C(=O)N[C@@H](C)C(=O)N[C@@H](CO)C(=O)N[C@H](C(=O)N[C@H](C(=O)N1CCC[C@H]1C(=O)N[C@@H](CO)C(=O)N[C@@H](C)C(=O)N[C@@H](CO)C(=O)N[C@@H](C)C(=O)N[C@H](C(=O)N[C@H](C(=O)N[C@@H](CC(N)=O)C(=O)N1CCC[C@H]1C(=O)N[C@@H](C)C(=O)N[C@@H](CO)C(=O)N[C@@H](C)C(=O)N[C@H](C(=O)N[C@H](C(=O)N[C@@H](CC(C)C)C(=O)N[C@@H](CC(=O)O)C(=O)N[C@@H](CCC(N)=O)C(=O)N[C@@H](CO)C(=O)N[C@@H](CCCCN)C(=O)N[C@@H](C)C(=O)N[C@@H](Cc1c[nH]c2ccccc12)C(=O)N[C@@H](CC(N)=O)C(=O)N[C@@H](CCCNC(=N)N)C(=O)O)[C@@H](C)O)[C@@H](C)O)[C@@H](C)O)[C@@H](C)O)[C@@H](C)O)[C@@H](C)O)C(C)C [compound 7] (Ac-EKNKNAN[pS]SPVASTTPSASATTNPASATTLDQSKAWNR-OH)	1.13 ± 0.18	–	–
KNANSpSPVA [compound 6, APN 39–47 pSer^44 peptide KNANSpSPVA, negative control]	–	–	binding toward 14-3-3σ in direct FP assay (in words) [3]: did not show any binding
CC(C)C[C@H](NC(=O)[C@@H](NC(=O)[C@@H](NC(=O)[C@H](C)NC(=O)[C@H](CO)NC(=O)[C@H](C)NC(=O)[C@@H]1CCCN1C(=O)[C@H](CC(N)=O)NC(=O)[C@@H](NC(=O)[C@@H](NC(=O)[C@H](C)NC(=O)[C@H](CO)NC(=O)[C@H](C)NC(=O)[C@H](CO)NC(=O)[C@@H]1CCCN1C(=O)[C@@H](NC(=O)[C@@H](NC(=O)[C@H](CO)NC(=O)[C@H](C)NC(=O)[C@@H](NC(=O)[C@@H]1CCCN1C(=O)[C@H](CO)NC(=O)[C@H](COP(=O)(O)O)NC(=O)[C@H](CC(N)=O)NC(=O)[C@H](C)NC(=O)[C@H](CC(N)=O)NC(=O)[C@H](CCCCN)NC(=O)[C@H](CC(N)=O)NC(=O)[C@H](CCCCN)NC(=O)[C@@H](N)CCC(=O)O)C(C)C)[C@@H](C)O)[C@@H](C)O)[C@@H](C)O)[C@@H](C)O)[C@@H](C)O)[C@@H](C)OP(=O)(O)O)C(=O)N[C@@H](CC(=O)O)C(=O)N[C@@H](CCC(N)=O)C(=O)N[C@@H](CO)C(=O)N[C@@H](CCCCN)C(=O)N[C@@H](C)C(=O)N[C@@H](Cc1c[nH]c2ccccc12)C(=O)N[C@@H](CC(N)=O)C(=O)N[C@@H](CCCNC(=N)N)C(=O)O [compound 12] (H-EKNKNAN[pS]SPVASTTPSASATTNPASAT[pT]LDQSKAWNR-OH)	–	0.18 ± 0.01 µM	–
CC(C)C[C@H](NC(=O)[C@@H](NC(=O)[C@@H](NC(=O)[C@H](C)NC(=O)[C@H](CO)NC(=O)[C@H](C)NC(=O)[C@@H]1CCCN1C(=O)[C@H](CC(N)=O)NC(=O)[C@@H](NC(=O)[C@@H](NC(=O)[C@H](C)NC(=O)[C@H](CO)NC(=O)[C@H](C)NC(=O)[C@H](CO)NC(=O)[C@@H]1CCCN1C(=O)[C@@H](NC(=O)[C@@H](NC(=O)[C@H](CO)NC(=O)[C@H](C)NC(=O)[C@@H](NC(=O)[C@@H]1CCCN1C(=O)[C@H](CO)NC(=O)[C@H](COP(=O)(O)O)NC(=O)[C@H](CC(N)=O)NC(=O)[C@H](C)NC(=O)[C@H](CC(N)=O)NC(=O)[C@H](CCCCN)NC(=O)[C@H](CC(N)=O)NC(=O)[C@H](CCCCN)NC(=O)[C@@H](N)CCC(=O)O)C(C)C)[C@@H](C)O)[C@@H](C)O)[C@@H](C)O)[C@@H](C)OP(=O)(O)O)[C@@H](C)O)[C@@H](C)O)C(=O)N[C@@H](CC(=O)O)C(=O)N[C@@H](CCC(N)=O)C(=O)N[C@@H](CO)C(=O)N[C@@H](CCCCN)C(=O)N[C@@H](C)C(=O)N[C@@H](Cc1c[nH]c2ccccc12)C(=O)N[C@@H](CC(N)=O)C(=O)N[C@@H](CCCNC(=N)N)C(=O)O [compound 9] (H-EKNKNAN[pS]SPVASTTPSASAT[pT]NPASATTLDQSKAWNR-OH)	–	15 ± 1.5 µM	–

Source: publication PMC7939381, “MMP activation–associated aminopeptidase N reveals a bivalent 14-3-3 binding motif” (The Journal of Biological Chemistry, 2021)
